According to patent publication US10399985B2, “(Hetero)aryl imidazoles/pyrazoles for treatment of neurological disorders” (Hoffmann-La Roche Inc., priority 2014, dated 2019):

Tests used:
rats = conditions: sub-chronic treatment with PCP; cited from earlier work
human PDE10A = human PDE10A (Homo sapiens (Human), UniProt Q9Y233); experiment: human PDE10A full length Scintillation Proximity Assay (SPA); assay type: biochemical; conditions: 50 nM cGMP and 50 nM [3H]-cGMP, 20 minutes at room temperature
Experimental: The following test was carried out in order to determine the activity of the compounds of the present invention. PDE10 activity of the compounds of the present invention was determined using a Scintillation Proximity Assay (SPA)-based method similar to the one previously described (Fawcett, L. et al., ProcNatl Acad Sci USA (2000) 97(7):3702-3707).
The human PDE10A full length assay was performed in 96-well micro titer plates. The reaction mixture of 50 μl contained 20 mM HEPES pH=7.5/10 mM MgCl2/0.05 mg/ml BSA (Sigma cat. # A-7906), 50 nM cGMP (Sigma, cat. # G6129) and 50 nM [3H]-cGMP (GE Healthcare, cat. # TRK392 S. A. 13.2 Ci/mmol), 3.75 ng/well PDE10A enzyme (Enzo Life Science, Lausen, Switzerland cat # SE-534) with or without a specific test compound. A range of concentrations of the potential inhibitor was used to generate data for calculating the concentration of inhibitor resulting in 50% of the effect (e.g. IC50, the concentration of the competitor inhibiting PDE10A activity by 50%). Non-specific activity was tested without the enzyme. The reaction was initiated by the addition of the substrate solution (cGMP and [3H]-cGMP) and allowed to progress for 20 minutes at room temperature. The reaction was terminated by adding 25 μl of YSi-SPA scintillation beads (GE Healthcare, cat. # RPNQ0150) in 18 mM zinc sulphate solution (stop reagent). After 1 h under shaking, the plate was centrifuged one minute at 170 g to allow beads to settle. Afterwards, radioactive counts were measured on a Perkin Elmer TopCount Scintillation plate reader.

Chain of human PDE10A (Q9Y233 other isoform, or with tags, fused parts or gaps): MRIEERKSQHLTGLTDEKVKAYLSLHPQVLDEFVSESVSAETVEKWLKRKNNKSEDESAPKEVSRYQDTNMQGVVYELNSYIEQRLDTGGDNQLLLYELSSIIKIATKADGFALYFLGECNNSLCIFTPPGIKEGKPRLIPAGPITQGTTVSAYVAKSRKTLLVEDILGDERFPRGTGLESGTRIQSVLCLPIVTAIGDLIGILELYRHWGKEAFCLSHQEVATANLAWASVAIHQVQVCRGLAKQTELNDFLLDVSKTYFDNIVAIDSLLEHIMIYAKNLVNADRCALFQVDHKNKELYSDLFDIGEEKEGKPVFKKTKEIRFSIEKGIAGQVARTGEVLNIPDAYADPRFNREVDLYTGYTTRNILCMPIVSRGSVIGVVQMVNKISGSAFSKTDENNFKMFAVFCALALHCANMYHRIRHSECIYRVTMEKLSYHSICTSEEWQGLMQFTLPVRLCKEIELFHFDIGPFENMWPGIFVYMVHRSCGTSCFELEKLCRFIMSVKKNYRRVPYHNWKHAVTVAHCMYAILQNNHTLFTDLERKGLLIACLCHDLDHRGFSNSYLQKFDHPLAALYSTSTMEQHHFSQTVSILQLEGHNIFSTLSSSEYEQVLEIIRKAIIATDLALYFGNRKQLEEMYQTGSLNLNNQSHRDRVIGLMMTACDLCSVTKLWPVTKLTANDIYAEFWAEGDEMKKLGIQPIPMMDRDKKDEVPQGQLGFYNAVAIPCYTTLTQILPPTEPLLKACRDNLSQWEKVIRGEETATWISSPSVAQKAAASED

| SMILES | IC50 (human PDE10A) [µM] | deficits in the extra-dimensional shift learning (rats) |
| --- | --- | --- |
| COc1ccc(Cc2nccc3cc(OC)c(OC)cc23)cc1OC [papaverine, Papaverine] | – | attenuate the deficits |
| Cc1nc2ccc(CCc3nc(-c4ccnnc4)cn3C)nn2c1C [Example 28, 2,3-Dimethyl-6-(2-(1-methyl-4-(pyridazin-4-yl)-1H-imidazol-2-yl)ethyl)imidazo[1,2-b]pyridazine] | 0.0812 | – |
| Cc1c(C(F)(F)F)nc2ccc(OCc3nc(-c4ccccc4)cn3C)nn12 [Example 36, 3-Methyl-6-((1-methyl-4-phenyl-1H-imidazol-2-yl)methoxy)-2-(trifluoromethyl)imidazo[1,2-b]pyridazine] | 0.0346 | – |
| Cc1cn2nc(OCc3nc(-c4ccccc4)cn3C)ccc2n1 [Example 38, 2-Methyl-6-((1-methyl-4-phenyl-1H-imidazol-2-yl)methoxy)imidazo[1,2-b]pyridazine] | 0.133 | – |
| COc1cc(OCc2nc(-c3ccccc3)cn2C)nn2c(C)c(C(F)(F)F)nc12 [Example 41, 8-Methoxy-3-methyl-6-((1-methyl-4-phenyl-1H-imidazol-2-yl)methoxy)-2-(trifluoromethyl)imidazo[1,2-b]pyridazine] | 0.0118 | – |
| Cc1nc2c(C)c(C)c(CCc3nc(-c4ccccc4)cn3C)nn2c1C [Example 14, 2,3,7,8-Tetramethyl-6-(2-(1-methyl-4-phenyl-1H-imidazol-2-yl)ethyl)imidazo[1,2-b]pyridazine] | 0.0108 | – |
| Cc1nn2ccc(OCc3nc(-c4ccccc4)cn3C)nc2c1C [Example 46, 2,3-Dimethyl-5-((1-methyl-4-phenyl-1H-imidazol-2-yl)methoxy)pyrazolo[1,5-a]pyrimidine] | 0.0034 | – |
| CNC(=O)c1cc(CCc2nc(-c3ccccn3)cn2C)nn2c(C)c(C(F)(F)F)nc12 [Example 31, N,3-Dimethyl-6-(2-(1-methyl-4-(pyridin-2-yl)-1H-imidazol-2-yl)ethyl)-2-(trifluoromethyl)imidazo[1,2-b]pyridazine-8-carboxamide] | 0.008 | – |
| Cc1nc2ccc(OCc3nc(-c4ccccc4)nn3C)nn2c1C [Example 33, 2,3-Dimethyl-6-((1-methyl-3-phenyl-1H-1,2,4-triazol-5-yl)methoxy)imidazo[1,2-b]pyridazine] | 0.0516 | – |

Further lines, with some results ahead:

| IC50 (human PDE10A) [µM] | SMILES | deficits in the extra-dimensional shift learning (rats) |
| --- | --- | --- |
| 0.0237 | Cc1c(C#N)nc2ccc(OCc3nc(-c4ccccc4)cn3C)nn12 [Example 40, 3-Methyl-6-((1-methyl-4-phenyl-1H-imidazol-2-yl)methoxy)imidazo[1,2-b]pyridazine-2-carbonitrile] | – |
| 0.012 | Cc1c(C2CC2)nc2ccc(C#Cc3nc(-c4ccccc4)cn3C)nn12 [Example 10, 2-Cyclopropyl-3-methyl-6-((1-methyl-4-phenyl-1H-imidazol-2-yl)ethynyl)imidazo[1,2-b]pyridazine] | – |
| 0.0015 | Cc1nn2ccc(C#Cc3nc(-c4ccccc4)cn3C)nc2c1C [Example 4, 2,3-Dimethyl-5-((1-methyl-4-phenyl-1H-imidazol-2-yl)ethynyl)pyrazolo[1,5-a]pyrimidine] | – |
| 0.0034 | Cc1nc2ccc(CCc3nc(-c4ccccc4)cn3C)nn2c1CO [Example 15, (2-Methyl-6-(2-(1-methyl-4-phenyl-1H-imidazol-2-yl)ethyl)imidazo[1,2-b]pyridazin-3-yl)methanol] | – |
